# Results taken from US8987445B2, “Sulfonamide compounds having TRPM8 antagonistic activity” (Mitsubishi Tanabe Pharma Corporation, priority 2011, dated 2015).
# Tests used:
# TRPM8 = TRPM8 (Rattus norvegicus (Rat), UniProt Q8R455); test: In vivo TRPM8 antagonistic assay in rats (menthol-induced wet-dog shakes); details: SD male rats; 3 mg/kg po 1 hour prior to menthol 50 mg/kg ip; WDS counted for 5 min
# Experimental: The antagonistic activity of compounds was assessed in the “wet-dog” shakes (WDS) model in rats. […] Pretreatment of the rats with a TRPM8 antagonist prior to menthol administration inhibits the observed shaking behavior.
# To assess the ability of a TRPM8 antagonist to prevent menthol induced shaking behavior in Sprague Dawley (SD) male rats, test compounds (3 mg/kg, po, in 0.5% methyl cellulose; N=3-4/group) were administered 1 hour prior to menthol challenge (50 mg/kg, ip, in 10% Macrogol 15 Hydroxystearate/saline). Spontaneous WDS were counted for 5 min post menthol dosing. Inhibition of the spontaneous WDS behavior relative to vehicle pretreatment is expressed as percent inhibition, calculated as follows: % Inhibition=[1−(treatment WDS count/vehicle WDS count)]×100.
# human TRPM8 = human TRPM8 (Homo sapiens (Human), UniProt Q7Z2W7); test: TRPM8 inhibition assay (menthol-induced calcium influx, FDSS); format: cell-based; details: HEK293 cells stably expressing human TRPM8; 100 μM menthol; Fura-2AM Ca2+ signal; read-out: TRPM8 Blocking Test (IC50)
# Experimental: The functional activity of compounds was determined by measuring changes in intracellular calcium concentration using a Ca^2+ sensitive fluorescent dye. The changes in fluorescent signal were monitored by the cell imaging technology by Hamamatsu Photonics's Functional Drug Screening System (FDSS). […] HEK293 cells stably expressing human TRPM8 were grown in flasks. On assay day, the culture medium was removed, and cells were washed with phosphate-buffered saline (PBS) and harvested with PBS containing 2 mM ethylenediaminetetraacetic acid, disodium salt (EDTA, 2Na). […] Subsequently, suspended 20,000 to 50,000 cells per well were incubated with test compound (at varying concentrations) in each well for 20 min at 37° C. Changes in intracellular Ca^2+ evoked by 100 μM menthol were measured for 2 min using FDSS. IC50 vales were determined from four-point concentration-response studies. Curves were generated using the average of quadruplicate wells for each data point.
# Chain of human TRPM8 (Q7Z2W7 whole entry): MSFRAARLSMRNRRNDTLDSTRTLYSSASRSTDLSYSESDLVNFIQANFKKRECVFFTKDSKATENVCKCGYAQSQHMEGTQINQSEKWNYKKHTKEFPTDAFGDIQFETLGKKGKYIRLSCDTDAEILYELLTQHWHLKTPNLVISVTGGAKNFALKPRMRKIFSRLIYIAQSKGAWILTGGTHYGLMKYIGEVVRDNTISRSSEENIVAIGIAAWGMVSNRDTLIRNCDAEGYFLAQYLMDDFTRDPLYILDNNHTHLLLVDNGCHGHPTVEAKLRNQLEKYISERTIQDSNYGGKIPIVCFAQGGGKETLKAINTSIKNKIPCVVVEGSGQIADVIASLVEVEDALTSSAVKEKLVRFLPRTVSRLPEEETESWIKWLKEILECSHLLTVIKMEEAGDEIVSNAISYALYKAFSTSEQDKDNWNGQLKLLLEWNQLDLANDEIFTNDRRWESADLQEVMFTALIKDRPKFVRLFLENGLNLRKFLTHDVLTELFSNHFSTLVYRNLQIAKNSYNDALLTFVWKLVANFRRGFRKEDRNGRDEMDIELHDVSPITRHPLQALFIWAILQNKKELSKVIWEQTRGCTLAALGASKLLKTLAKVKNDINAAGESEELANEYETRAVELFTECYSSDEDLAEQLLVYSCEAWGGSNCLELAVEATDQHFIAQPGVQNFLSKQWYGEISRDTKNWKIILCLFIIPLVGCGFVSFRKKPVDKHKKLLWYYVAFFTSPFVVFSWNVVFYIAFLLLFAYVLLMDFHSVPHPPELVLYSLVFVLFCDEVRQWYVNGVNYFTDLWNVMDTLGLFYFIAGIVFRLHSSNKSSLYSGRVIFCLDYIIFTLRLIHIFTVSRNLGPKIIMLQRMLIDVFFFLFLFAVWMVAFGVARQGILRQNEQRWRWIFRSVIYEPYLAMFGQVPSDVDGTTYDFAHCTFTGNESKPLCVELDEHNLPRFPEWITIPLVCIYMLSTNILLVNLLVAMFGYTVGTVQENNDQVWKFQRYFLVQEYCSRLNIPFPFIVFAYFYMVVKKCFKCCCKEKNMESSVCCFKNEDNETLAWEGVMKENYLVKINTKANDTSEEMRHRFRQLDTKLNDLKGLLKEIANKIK
# Chain of TRPM8 (Q8R455 whole entry): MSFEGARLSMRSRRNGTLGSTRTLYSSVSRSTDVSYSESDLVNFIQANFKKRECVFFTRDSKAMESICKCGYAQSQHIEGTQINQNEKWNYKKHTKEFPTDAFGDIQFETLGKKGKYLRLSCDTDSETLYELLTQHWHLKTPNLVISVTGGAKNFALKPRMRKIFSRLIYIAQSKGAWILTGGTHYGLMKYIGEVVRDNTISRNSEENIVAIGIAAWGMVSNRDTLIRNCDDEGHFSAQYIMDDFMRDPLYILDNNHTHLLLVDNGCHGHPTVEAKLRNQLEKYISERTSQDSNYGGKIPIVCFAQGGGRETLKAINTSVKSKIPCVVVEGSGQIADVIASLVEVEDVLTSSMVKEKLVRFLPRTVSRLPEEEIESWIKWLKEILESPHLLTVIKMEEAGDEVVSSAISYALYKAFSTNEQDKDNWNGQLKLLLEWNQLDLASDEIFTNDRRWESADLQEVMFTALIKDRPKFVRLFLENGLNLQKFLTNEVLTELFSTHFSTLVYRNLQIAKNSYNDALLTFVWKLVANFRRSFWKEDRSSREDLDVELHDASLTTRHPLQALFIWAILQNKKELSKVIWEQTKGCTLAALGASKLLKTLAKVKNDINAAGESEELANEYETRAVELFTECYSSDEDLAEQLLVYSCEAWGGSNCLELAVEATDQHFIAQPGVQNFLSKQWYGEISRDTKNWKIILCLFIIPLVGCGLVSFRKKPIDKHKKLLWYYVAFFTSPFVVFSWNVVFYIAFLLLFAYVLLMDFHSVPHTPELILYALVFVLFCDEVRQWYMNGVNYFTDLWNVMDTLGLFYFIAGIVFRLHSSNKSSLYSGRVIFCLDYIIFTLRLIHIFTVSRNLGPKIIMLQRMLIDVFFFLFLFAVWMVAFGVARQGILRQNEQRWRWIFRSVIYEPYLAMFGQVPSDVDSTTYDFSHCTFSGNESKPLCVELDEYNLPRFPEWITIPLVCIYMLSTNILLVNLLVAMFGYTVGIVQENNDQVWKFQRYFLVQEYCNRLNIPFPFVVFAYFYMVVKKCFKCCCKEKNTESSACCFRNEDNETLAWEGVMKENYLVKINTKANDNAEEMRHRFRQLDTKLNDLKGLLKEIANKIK
smiles,measurement,setting,value
"O=C(O)c1ccc(S(=O)(=O)N(Cc2ccc(OC(F)(F)F)cc2)c2ncc3ccccc3c2C(F)(F)F)cc1 [Example 106, 4-({[4-(trifluoromethoxy)benzyl][4-(trifluoromethyl)isoquinolin-3-yl]amino}sulfonyl)benzoic acid]",TRPM8 antagonistic assay (% Inhibition @ 3 mg/kg),TRPM8,92.7%
same,IC50,human TRPM8,2 nM
COc1c(N(Cc2ccc(OC(F)(F)F)cc2)S(=O)(=O)c2ccc(C(=O)O)cc2)ncc2ccccc12 [Example 149],TRPM8 antagonistic assay (% Inhibition @ 3 mg/kg),TRPM8,98.8%
same,IC50,human TRPM8,3.9 nM
CC(C)c1c(N(Cc2ccc(OC(F)(F)F)cc2)S(=O)(=O)c2ccc(C(=O)O)cc2)ncc2ccccc12 [Example 227],TRPM8 antagonistic assay (% Inhibition @ 3 mg/kg),TRPM8,72.5%
same,IC50,human TRPM8,5.6 nM
O=C(O)c1ccc(S(=O)(=O)N(c2ncc3ccccc3c2C2CC2)C2CCc3cc(OC(F)(F)F)ccc32)cc1 (centres unmarked) [Example 186],TRPM8 antagonistic assay (% Inhibition @ 3 mg/kg),TRPM8,83.5%
same,IC50,human TRPM8,4.3 nM
Cc1c(N(Cc2ccc3c(c2)COC3(C)C)S(=O)(=O)c2ccc(C(=O)O)cc2)ncc2ccccc12 [Example 83],IC50,human TRPM8,10 nM
Cc1cc2ccc(Cl)cc2nc1N(Cc1ccc(OC(F)(F)F)cc1)S(=O)(=O)c1ccc(C(=O)O)cc1 [Example 134],IC50,human TRPM8,695 nM
Cc1c(N(Cc2ccc(OC(F)(F)F)cc2)S(=O)(=O)c2ccc(C(=O)O)cc2)nc(C(C)C)c2ccccc12 [Example 225],IC50,human TRPM8,2.8 nM
Cc1c(N(Cc2ccc(-c3ccccc3)cn2)S(=O)(=O)c2ccc(C(=O)O)cc2)ncc2ccccc12 [Example 67],IC50,human TRPM8,67 nM
Cc1cc2ccccc2nc1N(Cc1ccc(CC2CC2)cc1)S(=O)(=O)c1ccc(C(=O)O)cc1 [Example 183],IC50,human TRPM8,7.7 nM
CCOc1nc(N(Cc2ccc(OC(F)(F)F)cc2)S(=O)(=O)c2ccc(C(=O)O)cc2)c(C)c2ccccc12 [Example 228],IC50,human TRPM8,7.2 nM
Cc1ccc2c(C)c(N(Cc3ccc(OC(F)(F)F)cc3)S(=O)(=O)c3ccc(C(=O)O)cc3)ncc2c1 [Example 131],IC50,human TRPM8,109 nM
O=C(O)c1ccc(S(=O)(=O)N(Cc2ccc(OC(F)(F)F)cc2)c2cc3ccccc3c(C3CC3)n2)cc1 [Example 216],IC50,human TRPM8,66 nM
Cc1c(N(Cc2cc3c(Cl)cccc3s2)S(=O)(=O)c2ccc(C(=O)O)cc2)ncc2ccccc12 [Example 196],IC50,human TRPM8,2.2 nM
O=C(O)c1ccc(S(=O)(=O)N(Cc2ccc(OC(F)(F)F)cc2)c2ncc(Cl)c3ccccc23)cc1 [Example 130],IC50,human TRPM8,94 nM
CCc1cc2ccccc2nc1N(Cc1ccc(OC(F)(F)F)cc1)S(=O)(=O)c1ccc(C(=O)O)cc1 [Example 144],IC50,human TRPM8,54 nM
Cc1cc2ccccc2nc1N(Cc1ccc(OC(F)(F)F)cc1)S(=O)(=O)c1ccc(C(=O)O)cc1 [Example 17],IC50,human TRPM8,5 nM
"Cc1c(N(Cc2ccc(OC(F)(F)F)cc2)S(=O)(=O)c2ccc(C(=O)O)cc2)nc(C(C)O)c2ccccc12 (centres unmarked) [Example 115, 4-({[1-(1-hydroxyethyl)-4-methylisoquinolin-3-yl][4-(trifluoromethoxy)benzyl]amino}sulfonyl)benzoic acid]",IC50,human TRPM8,97 nM
Cc1c(N(Cc2ccc(C(C)(O)C(F)(F)F)c(F)c2)S(=O)(=O)c2ccc(C(=O)O)cc2)ncc2ccccc12 (centres unmarked) [Example 169],IC50,human TRPM8,55 nM
Cc1c(N(Cc2ccc(-c3ccccc3F)cc2)S(=O)(=O)c2ccc(C(=O)O)cc2)ncc2ccccc12 [Example 88],IC50,human TRPM8,10 nM
COC1(C(F)(F)F)CCc2cc(CN(c3ncc4ccccc4c3C)S(=O)(=O)c3ccc(C(=O)O)cc3)ccc21 (centres unmarked) [Example 223],IC50,human TRPM8,3.5 nM
O=C(O)c1ccc(S(=O)(=O)N(Cc2ccc(OC(F)(F)F)cc2)c2cc3ccccc3c(Br)n2)cc1 [Example 143],IC50,human TRPM8,131 nM
Cc1c(N(Cc2ccc(-c3cccc(F)c3)cc2)S(=O)(=O)c2ccc(C(=O)O)cc2)ncc2ccccc12 [Example 89],IC50,human TRPM8,15 nM
Cc1c(N(Cc2cc(F)c3c(c2)CCC3)S(=O)(=O)c2ccc(C(=O)O)cc2)ncc2ccccc12 [Example 175],IC50,human TRPM8,4.4 nM
"CCCc1nc(N(Cc2ccc(OC(F)(F)F)cc2)S(=O)(=O)c2ccc(C(=O)O)cc2)c(C)c2ccccc12 [Example 97, 4-({(4-methyl-1-propylisoquinolin-3-yl)[4-(trifluoromethoxy)benzyl]amino}sulfonyl)benzoic acid]",IC50,human TRPM8,11 nM
Cc1c(N(Cc2cc3ccc(Cl)cc3s2)S(=O)(=O)c2ccc(C(=O)O)cc2)ncc2ccccc12 [Example 198],IC50,human TRPM8,11 nM
